Source: publication PMC6271529, “Studies on the Anticonvulsant Activity and Influence on GABA-ergic Neurotransmission of 1,2,4-Triazole-3-thione-Based Compounds” (Molecules, 2014)
Entries after “also recorded” stand apart in the source; their conditions may differ. Where two headings read alike, the source gives them in different places. One block for each compound: values may come before it.

Legend:
[1] = test system: maximal electroshock-induced seizures; experiment: Maximal electroshock-induced seizure (MES) test in mice; assay type: in vivo, mouse; conditions: for p/t, number of animals protected against MES-induced seizures / number tested / responders at 300 mg/kg: 300 mg/kg i.p.; for responders at 300 mg/kg / ED50: Mus musculus, ip; for responders at 300 mg/kg: read-out: percent of animals protected against MES-induced seizures; for PI (TD50/ED50): protective index; for onset of action: significant protection as early as 15 min after parenteral administration, MES
Protocol: Additionally, all efforts were made to minimize animal suffering and to use only the number of animals necessary to produce reliable scientific data.
In the initial stage of the study, groups of eight mice were supplied with the compounds (administered intraperitoneally) in a dose of 300 mg/kg and then exposed to electrical impulse at fixed intervals (15, 30, 60, 120 min).
Each mouse was used only once.
Fresh drug solutions were prepared on each day of experimentation and administered at 15, 30, 60 and 120 min. before the initiation of maximal electroconvulsions. Electroconvulsions were produced by a current (0.2 s stimulus duration; 500 V, 50 Hz, fixed current intensity of 25 mA) delivered via ear-clip electrodes by a Rodent Shocker generator (constant-current stimulator Type 221, Hugo Sachs Elektronik, Freiburg, Germany). The criterion for the occurrence of seizure activity was the tonic hind limb extension. The animals were administered with a constant dose of 300 mg/kg of each of the examined compounds and were subjected to MES-induced seizures. […] The animals were administered with different doses of the tested compounds so as to obtain a variable percentage of protection against maximal electroconvulsions, allowing the construction of dose-response relationship lines for each examined compound administered i.p. at various pretreatment times, according to Litchfield and Wilcoxon. Each ED50 value represents the dose of the studied compounds that is required to protect 50% of the animals tested against MES-induced seizures.

GABAA receptors = experiment: Radioligand binding assay, [3H]muscimol, rat cerebral cortex; conditions: compound 1 × 10^−6 M, [3H]muscimol, rat cerebral cortex;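 further: low percentages indicate weak binding of the compound to the receptor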
Protocol: Binding experiments were conducted in 96-well microplates in a total volume of 200 μL of appropriate buffer. The reaction mixture included 50 μL solution of test compound, 50 μL of radioligand, and […] the tissue suspension. Rat cerebral cortex was used for each receptor. […] Radioligand binding data were analyzed using iterative curve fitting routines (GraphPAD/Prism, Version 3.0, San Diego, CA, USA). Ki values were calculated from the Cheng and Prusoff equation [36].

[2] = test system: benzodiazepine (BDZ)-binding sites; experiment: Radioligand binding assay, [3H]flunitrazepam, rat cerebral cortex; conditions: compound 1 × 10^−6 M;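 further: low percentages indicate weak binding of the compound to the site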
Protocol: Binding experiments were conducted in 96-well microplates in a total volume of 200 μL of appropriate buffer. The reaction mixture included 50 μL solution of test compound, 50 μL of radioligand, and […] the tissue suspension. Rat cerebral cortex was used for each receptor. The radioactivity was measured in MicroBeta TriLux 1450-liquid scintillation counter (PerkinElmer, Waltham, MA, USA). Radioligand binding data were analyzed using iterative curve fitting routines (GraphPAD/Prism, Version 3.0, San Diego, CA, USA). Ki values were calculated from the Cheng and Prusoff equation [36].

[3] = test system: motor performance in mice; experiment: Chimney test (motor performance impairment, acute adverse effects); conditions: i.p.
Protocol: Adult male Swiss mice (weighing 22–26 g) that were kept in colony cages with free access to food and tap water, housed under standardized housing conditions, were used. After seven days of adaptation to laboratory conditions, the animals were randomly assigned to experimental groups each comprised of eight mice. Each mouse was used only once. Procedures involving animals and their care were conducted in accordance with current European Community and Polish legislation on animal experimentation. The experimental protocols and procedures described in this manuscript were approved by the First Local Ethics Committee at the Medical University in Lublin and the Second Local Ethics Committee at the University of Life Sciences in Lublin and complied with the European Communities Council Directive of 24 November 1986 (86/609/EEC).
In this test, the animals had to climb backwards up a plastic tube (3 cm inner diameter, 30 cm length), and motor performance impairment was indicated by the inability of the mice to climb backward up the transparent tube within 60 s. […] To evaluate each TD50 value, at least four groups of animals (each group consisted of eight mice) injected with various doses of the appropriate compound were challenged with the chimney test. A dose-response relationship line was calculated on the basis of the percentage of mice showing motor deficits by means of the log-probit method according to Litchfield and Wilcoxon.

[4] = pretreatment time 120 min, mice
[5] = 0.25 h, pretreatment time 15 min, mice
[6] = 0.5 h, pretreatment time 30 min, mice
[7] = 1 h, pretreatment time 60 min, mice
[8] = 2 h, pretreatment time 120 min, mice
[9] = pretreatment time 15 min, mice, read-out: ED50 ± S.E. (MES test)
[10] = pretreatment time 30 min, mice, read-out: ED50 ± S.E. (MES test)
[11] = pretreatment time 60 min, mice, read-out: ED50 ± S.E. (MES test)
[12] = pretreatment time 120 min, mice, read-out: ED50 ± S.E. (MES test)
[13] = chimney TD50 / MES ED50, pretreatment time 15 min
[14] = chimney TD50 / MES ED50, pretreatment time 30 min
[15] = chimney TD50 / MES ED50, pretreatment time 60 min
[16] = chimney TD50 / MES ED50, pretreatment time 120 min

Percent of Specific Binding, GABAA (GABAA receptors): 8%
Percent of Specific Binding, BDZ [2]: 14%
melting point: 170 to 171 °C
SMILES: Fc1ccccc1-n1c(-c2cccc(Cl)c2)n[nH]c1=S [Compound 1a, 5-(3-Chlorophenyl)-4-(2-fluorophenyl)-2,4-dihydro-3H-1,2,4-triazole-3-thione]
p/t, number of animals protected against MES-induced seizures / number tested ([1]; pretreatment time 15 min, mice): 0/8
p/t, number of animals protected against MES-induced seizures / number tested ([1]; pretreatment time 30 min, mice): 0/8
p/t, number of animals protected against MES-induced seizures / number tested ([1]; pretreatment time 60 min, mice): 1/8
p/t, number of animals protected against MES-induced seizures / number tested [1, 4]: 1/8
responders at 300 mg/kg [1, 5]: 0%
responders at 300 mg/kg [1, 6]: 0%
responders at 300 mg/kg [1, 7]: 12.5%
responders at 300 mg/kg [1, 8]: 12.5%

SMILES: Fc1ccccc1-n1c(-c2ccc(Cl)cc2)n[nH]c1=S [Compound 12a, 5-(4-Chlorophenyl)-4-(2-fluorophenyl)-2,4-dihydro-3H-1,2,4-triazole-3-thione]
p/t, number of animals protected against MES-induced seizures / number tested ([1]; pretreatment time 15 min, mice): 6/8
p/t, number of animals protected against MES-induced seizures / number tested ([1]; pretreatment time 30 min, mice): 6/8
p/t, number of animals protected against MES-induced seizures / number tested ([1]; pretreatment time 60 min, mice): 7/8
p/t, number of animals protected against MES-induced seizures / number tested [1, 4]: 7/8
responders at 300 mg/kg [1, 5]: 75%
responders at 300 mg/kg [1, 6]: 75%
responders at 300 mg/kg [1, 7]: 87.5%
responders at 300 mg/kg [1, 8]: 87.5%
ED50 [1, 9]: 208 ± 25.3 mg/kg
ED50 [1, 10]: 186 ± 24.6 mg/kg
ED50 [1, 11]: 218 ± 21.7 mg/kg
ED50 [1, 12]: 209 ± 27.3 mg/kg
ED50 ([1]; pretreatment times 15, 30, 60, 120 min, read-out: ED50 (MES), range over pretreatment times): 186 to 218 mg/kg
PI (TD50/ED50) [1, 13]: 2.6
PI (TD50/ED50) [1, 14]: 2.7
PI (TD50/ED50) [1, 15]: 1.9
PI (TD50/ED50) [1, 16]: 2.3
onset of action ([1]; mice): quick onset of action
Percent of Specific Binding, GABAA (GABAA receptors): 13%
Percent of Specific Binding, BDZ [2]: 18%
melting point: 240 to 242 °C

SMILES: S=c1[nH]nc(-c2ccc(Cl)cc2)n1-c1ccccc1Br [Compound 15a, 4-(2-Bromophenyl)-5-(4-chlorophenyl)-2,4-dihydro-3H-1,2,4-triazole-3-thione]
p/t, number of animals protected against MES-induced seizures / number tested ([1]; pretreatment time 15 min, mice): 6/8
p/t, number of animals protected against MES-induced seizures / number tested ([1]; pretreatment time 30 min, mice): 8/8
p/t, number of animals protected against MES-induced seizures / number tested ([1]; pretreatment time 60 min, mice): 8/8
p/t, number of animals protected against MES-induced seizures / number tested [1, 4]: 7/8
responders at 300 mg/kg [1, 5]: 75%
responders at 300 mg/kg [1, 6]: 100%
responders at 300 mg/kg [1, 7]: 100%
responders at 300 mg/kg [1, 8]: 87.5%
ED50 [1, 9]: 183 ± 25.1 mg/kg
ED50 [1, 10]: 105 ± 16.5 mg/kg
ED50 [1, 11]: 137 ± 19.9 mg/kg
ED50 [1, 12]: 176 ± 25 mg/kg
PI (TD50/ED50) [1, 13]: 1.5
PI (TD50/ED50) [1, 14]: 2.4
PI (TD50/ED50) [1, 15]: 1.8
PI (TD50/ED50) [1, 16]: 1.4
onset of action ([1]; mice): quick onset of action
Percent of Specific Binding, GABAA (GABAA receptors): 8%
Percent of Specific Binding, BDZ [2]: 21%
melting point: 250 to 252 °C

Percent of Specific Binding, GABAA (GABAA receptors): 21%
Percent of Specific Binding, BDZ [2]: 6%
melting point: 214 to 216 °C
SMILES: CSc1ccc(-n2c(-c3ccc(Cl)cc3)n[nH]c2=S)cc1 [Compound 17a, 5-(4-Chlorophenyl)-4-[4-(methylsulfanyl)phenyl]-2,4-dihydro-3H-1,2,4-triazole-3-thione]
p/t, number of animals protected against MES-induced seizures / number tested ([1]; pretreatment time 15 min, mice): 0/8
p/t, number of animals protected against MES-induced seizures / number tested ([1]; pretreatment time 30 min, mice): 0/8
p/t, number of animals protected against MES-induced seizures / number tested ([1]; pretreatment time 60 min, mice): 1/8
p/t, number of animals protected against MES-induced seizures / number tested [1, 4]: 0/8
responders at 300 mg/kg [1, 5]: 0%
responders at 300 mg/kg [1, 6]: 0%
responders at 300 mg/kg [1, 7]: 12.5%
responders at 300 mg/kg [1, 8]: 0%

SMILES: Cc1ccc(-n2c(-c3cccc(Cl)c3)nn(CN3CCOCC3)c2=S)cc1 [Compound 22a, 5-(3-Chlorophenyl)-4-(4-methylphenyl)-2-(morpholin-4-ylmethyl)-2,4-dihydro-3H-1,2,4-triazole-3-thione]
p/t, number of animals protected against MES-induced seizures / number tested ([1]; pretreatment time 15 min, mice): 4/8
p/t, number of animals protected against MES-induced seizures / number tested ([1]; pretreatment time 30 min, mice): 5/8
p/t, number of animals protected against MES-induced seizures / number tested ([1]; pretreatment time 60 min, mice): 3/8
p/t, number of animals protected against MES-induced seizures / number tested [1, 4]: 2/8
anticonvulsant activity (in words) ([1]; MES test, mice): slightly weaker than that of valproate; also recorded: weak anticonvulsant activity
responders at 300 mg/kg [1, 5]: 50%
responders at 300 mg/kg [1, 6]: 62.5%
responders at 300 mg/kg [1, 7]: 37.5%
responders at 300 mg/kg [1, 8]: 25%
ED50 [1, 9]: 224 ± 20.9 mg/kg
ED50 [1, 10]: 228 ± 14.7 mg/kg
ED50 [1, 11]: 274 ± 10.9 mg/kg
ED50 [1, 12]: 448 ± 21.4 mg/kg
PI (TD50/ED50) [1, 13]: 1.5
PI (TD50/ED50) [1, 14]: 1.4
PI (TD50/ED50) [1, 15]: 1.6
PI (TD50/ED50) [1, 16]: 1.0
onset of action ([1]; mice): quick onset of action
Percent of Specific Binding, GABAA (GABAA receptors): 6%
Percent of Specific Binding, BDZ [2]: 12%

Percent of Specific Binding, GABAA (GABAA receptors): 23%
Percent of Specific Binding, BDZ [2]: 7%
SMILES: Cc1ccc(-n2c(-c3cccc(Cl)c3)nn(CN3CCN(c4ccccc4)CC3)c2=S)cc1 [Compound 23a, 5-(3-Chlorophenyl)-4-(4-methylphenyl)-2-[(4-phenylpiperazin-1-yl)methyl]-2,4-dihydro-3H-1,2,4-triazole-3-thione]
p/t, number of animals protected against MES-induced seizures / number tested ([1]; pretreatment time 15 min, mice): 0/8
p/t, number of animals protected against MES-induced seizures / number tested ([1]; pretreatment time 30 min, mice): 0/8
p/t, number of animals protected against MES-induced seizures / number tested ([1]; pretreatment time 60 min, mice): 0/8
p/t, number of animals protected against MES-induced seizures / number tested [1, 4]: 0/8
responders at 300 mg/kg [1, 5]: 0%
responders at 300 mg/kg [1, 6]: 0%
responders at 300 mg/kg [1, 7]: 0%
responders at 300 mg/kg [1, 8]: 0%

Percent of Specific Binding, GABAA (GABAA receptors): 21%
Percent of Specific Binding, BDZ [2]: 13%
SMILES: Cc1ccc(-n2c(-c3cccc(Cl)c3)nn(CN3CCN(c4ccc(F)cc4)CC3)c2=S)cc1 [Compound 24a, 5-(3-Chlorophenyl)-2-{[4-(4-fluorophenyl)piperazin-1-yl]methyl}-4-(4-methylphenyl)-2,4-dihydro-3H-1,2,4-triazole-3-thione]
p/t, number of animals protected against MES-induced seizures / number tested ([1]; pretreatment time 15 min, mice): 0/8
p/t, number of animals protected against MES-induced seizures / number tested ([1]; pretreatment time 30 min, mice): 0/8
p/t, number of animals protected against MES-induced seizures / number tested ([1]; pretreatment time 60 min, mice): 0/8
p/t, number of animals protected against MES-induced seizures / number tested [1, 4]: 0/8
responders at 300 mg/kg [1, 5]: 0%
responders at 300 mg/kg [1, 6]: 0%
responders at 300 mg/kg [1, 7]: 0%
responders at 300 mg/kg [1, 8]: 0%

SMILES: CCCC(CCC)C(=O)O [Valproate, Magnesium valproate]
ED50 [1, 10]: 217 ± 9.4 mg/kg
ED50 [1, 11]: 218 ± 18.9 mg/kg
ED50 [1, 12]: 247 ± 21.6 mg/kg
TD50 ± S.E. (chimney test) ([3]; pretreatment time 15 min): 363.3 ± 14.2 mg/kg
TD50 ± S.E. (chimney test) ([3]; pretreatment time 30 min): 372.9 ± 16.9 mg/kg
TD50 ± S.E. (chimney test) ([3]; pretreatment time 60 min): 417.3 ± 9.5 mg/kg
TD50 ± S.E. (chimney test) ([3]; pretreatment time 120 min): 512.3 ± 20.2 mg/kg
